Experiments:
Experiment in all cases: KINOMEscan competition binding
Conditions in all cases: compound 2.0 µM
[1] = test system: ABL1 (human), P00519 [E255K]
ACVR2B (human) = ACVR2B (human) (UniProt Q13705)
BMPR1A (human) = BMPR1A (human) (UniProt P36894)
BRSK2 (human) = BRSK2 (human) (UniProt Q8IWQ3)
CAMK2B (human) = CAMK2B (human) (UniProt Q13554)
CDK16 (human) = CDK16 (human) (UniProt Q00536)
CDK18 (human) = CDK18 (human) (UniProt Q07002)
CSNK1G3 (human) = CSNK1G3 (human) (UniProt Q9Y6M4)
DAPK3 (human) = DAPK3 (human) (UniProt O43293)
DYRK1A (human) = DYRK1A (human) (UniProt Q13627)
[2] = test system: EGFR (human), P00533 [747-751 del / S ins]
[3] = test system: EGFR (human), P00533 [752-759 del]
[4] = test system: EGFR (human), P00533 [G719S]
FGFR4 (human) = FGFR4 (human) (UniProt P22455)
FYN (human) = FYN (human) (UniProt P06241)
[5] = target: JAK1 JH1 catalytic (human) (UniProt P23458)
[6] = test system: KIT (human), P10721 [A829P]
LCK (human) = LCK (human) (UniProt P06239)
[7] = test system: LRRK2 (human), Q5S007 [G2019S]
MAP2K6 (human) = MAP2K6 (human) (UniProt P52564)
MAP3K4 (human) = MAP3K4 (human) (UniProt Q9Y6R4)
MAP4K5 (human) = MAP4K5 (human) (UniProt Q9Y4K4)
MAPK6 (human) = MAPK6 (human) (UniProt Q16659)
MAPK7 (human) = MAPK7 (human) (UniProt Q13164)
MARK1 (human) = MARK1 (human) (UniProt Q9P0L2)
MARK2 (human) = MARK2 (human) (UniProt Q7KZI7)
MYLK3 (human) = MYLK3 (human) (UniProt Q32MK0)
NEK7 (human) = NEK7 (human) (UniProt Q8TDX7)
NLK (human) = NLK (human) (UniProt Q9UBE8)
NTRK1 (human) = NTRK1 (human) (UniProt P04629)
PIP5K1C (human) = PIP5K1C (human) (UniProt O60331)
PKMYT1 (human) = PKMYT1 (human) (UniProt Q99640)
PKN3 (M.tuberculosis) = PKN3 (M.tuberculosis) (UniProt Q6P5Z2)
RIPK2 (human) = RIPK2 (human) (UniProt O43353)
ROCK1 (human) = ROCK1 (human) (UniProt Q13464)
SGK110 (human) = SGK110 (human) (UniProt P0C264)
SIK2 (human) = SIK2 (human) (UniProt Q9H0K1)
SNRK (human) = SNRK (human) (UniProt Q9NRH2)
STK35 (human) = STK35 (human) (UniProt Q8TDR2)
SYK (human) = SYK (human) (UniProt P43405)
TNIK (human) = TNIK (human) (UniProt Q9UKE5)
[8] = target: TYK2 JH1 catalytic (human) (UniProt P29597)
ULK2 (human) = ULK2 (human) (UniProt Q8IYT8)

BMPR1A (human), sequence (P36894 whole entry, looked up): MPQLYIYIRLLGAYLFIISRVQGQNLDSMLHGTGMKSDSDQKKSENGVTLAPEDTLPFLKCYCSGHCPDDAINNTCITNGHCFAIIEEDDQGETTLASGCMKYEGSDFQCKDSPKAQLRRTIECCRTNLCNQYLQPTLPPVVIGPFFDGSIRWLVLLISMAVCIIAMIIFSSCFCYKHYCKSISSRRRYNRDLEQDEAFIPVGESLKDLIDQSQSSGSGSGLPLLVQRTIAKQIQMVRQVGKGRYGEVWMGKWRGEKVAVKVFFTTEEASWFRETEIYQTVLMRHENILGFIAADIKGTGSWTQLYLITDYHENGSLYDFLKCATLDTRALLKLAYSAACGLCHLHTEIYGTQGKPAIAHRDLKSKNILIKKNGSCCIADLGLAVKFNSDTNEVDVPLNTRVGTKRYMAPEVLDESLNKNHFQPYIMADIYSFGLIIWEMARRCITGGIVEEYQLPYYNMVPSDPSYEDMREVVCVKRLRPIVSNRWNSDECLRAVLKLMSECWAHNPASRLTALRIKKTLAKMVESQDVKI
NTRK1 (human), sequence (P04629 whole entry, looked up): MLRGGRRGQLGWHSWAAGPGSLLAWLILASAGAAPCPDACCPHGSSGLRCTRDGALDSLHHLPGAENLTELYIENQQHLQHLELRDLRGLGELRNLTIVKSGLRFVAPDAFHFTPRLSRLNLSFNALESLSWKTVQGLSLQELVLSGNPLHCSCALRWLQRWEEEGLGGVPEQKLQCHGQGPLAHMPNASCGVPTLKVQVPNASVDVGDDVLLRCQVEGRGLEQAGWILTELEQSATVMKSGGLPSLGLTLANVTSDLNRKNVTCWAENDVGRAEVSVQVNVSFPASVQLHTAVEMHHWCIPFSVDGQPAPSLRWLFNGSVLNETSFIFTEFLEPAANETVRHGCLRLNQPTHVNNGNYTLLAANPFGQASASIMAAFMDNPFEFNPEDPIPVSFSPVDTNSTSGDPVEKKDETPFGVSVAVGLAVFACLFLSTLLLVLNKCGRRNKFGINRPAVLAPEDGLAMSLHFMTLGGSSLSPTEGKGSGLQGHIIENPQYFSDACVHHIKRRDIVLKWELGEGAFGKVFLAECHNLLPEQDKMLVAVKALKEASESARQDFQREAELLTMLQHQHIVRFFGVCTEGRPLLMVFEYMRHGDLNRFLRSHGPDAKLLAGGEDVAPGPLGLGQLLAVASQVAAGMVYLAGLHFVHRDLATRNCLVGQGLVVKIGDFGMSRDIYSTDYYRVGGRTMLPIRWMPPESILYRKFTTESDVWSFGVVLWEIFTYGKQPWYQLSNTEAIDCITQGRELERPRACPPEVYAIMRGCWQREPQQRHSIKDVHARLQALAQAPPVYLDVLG
MAPK7 (human), sequence (Q13164 whole entry, looked up): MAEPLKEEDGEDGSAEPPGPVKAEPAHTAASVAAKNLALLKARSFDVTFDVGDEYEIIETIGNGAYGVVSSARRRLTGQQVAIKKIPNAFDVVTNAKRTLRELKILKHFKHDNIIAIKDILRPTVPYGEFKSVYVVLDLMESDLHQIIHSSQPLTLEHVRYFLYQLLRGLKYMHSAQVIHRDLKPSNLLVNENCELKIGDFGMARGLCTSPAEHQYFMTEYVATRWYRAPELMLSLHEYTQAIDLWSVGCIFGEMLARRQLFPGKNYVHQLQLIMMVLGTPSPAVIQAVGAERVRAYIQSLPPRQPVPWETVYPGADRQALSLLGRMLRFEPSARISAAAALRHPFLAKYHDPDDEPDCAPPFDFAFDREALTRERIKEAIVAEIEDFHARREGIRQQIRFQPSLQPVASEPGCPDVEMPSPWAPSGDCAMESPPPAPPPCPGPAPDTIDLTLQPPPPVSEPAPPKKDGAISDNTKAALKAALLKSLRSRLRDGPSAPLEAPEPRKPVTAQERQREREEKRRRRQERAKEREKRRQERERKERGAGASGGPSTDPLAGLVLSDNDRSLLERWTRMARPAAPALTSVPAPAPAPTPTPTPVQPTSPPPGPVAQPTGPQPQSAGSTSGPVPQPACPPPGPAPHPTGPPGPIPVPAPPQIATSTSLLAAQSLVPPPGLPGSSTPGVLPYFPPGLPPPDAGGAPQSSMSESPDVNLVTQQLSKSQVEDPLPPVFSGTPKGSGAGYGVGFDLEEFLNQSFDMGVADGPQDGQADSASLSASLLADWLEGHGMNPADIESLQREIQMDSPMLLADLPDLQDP
PKN3 (M.tuberculosis), sequence (Q6P5Z2 whole entry, looked up): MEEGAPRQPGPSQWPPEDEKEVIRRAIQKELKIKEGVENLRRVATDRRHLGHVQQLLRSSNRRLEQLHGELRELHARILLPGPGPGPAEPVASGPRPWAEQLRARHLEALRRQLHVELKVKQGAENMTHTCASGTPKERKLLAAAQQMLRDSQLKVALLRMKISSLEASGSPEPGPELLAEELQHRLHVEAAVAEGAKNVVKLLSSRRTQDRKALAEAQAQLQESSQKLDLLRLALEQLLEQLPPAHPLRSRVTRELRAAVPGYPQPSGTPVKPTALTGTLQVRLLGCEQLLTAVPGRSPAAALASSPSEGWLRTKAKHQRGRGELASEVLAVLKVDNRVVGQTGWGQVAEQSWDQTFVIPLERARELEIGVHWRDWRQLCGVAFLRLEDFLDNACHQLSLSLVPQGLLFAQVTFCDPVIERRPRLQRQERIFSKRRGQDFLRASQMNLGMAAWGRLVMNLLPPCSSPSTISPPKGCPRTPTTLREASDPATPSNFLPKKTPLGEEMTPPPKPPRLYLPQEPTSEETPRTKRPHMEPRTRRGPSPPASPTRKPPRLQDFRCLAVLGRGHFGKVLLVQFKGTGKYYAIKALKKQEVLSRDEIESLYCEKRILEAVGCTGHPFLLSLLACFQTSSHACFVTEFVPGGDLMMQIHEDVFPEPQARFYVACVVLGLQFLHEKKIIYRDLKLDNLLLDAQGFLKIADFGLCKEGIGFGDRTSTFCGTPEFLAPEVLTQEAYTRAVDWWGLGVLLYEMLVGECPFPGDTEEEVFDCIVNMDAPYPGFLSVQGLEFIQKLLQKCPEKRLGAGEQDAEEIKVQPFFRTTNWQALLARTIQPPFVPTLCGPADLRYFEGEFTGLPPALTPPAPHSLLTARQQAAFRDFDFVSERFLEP
SGK110 (human), sequence (P0C264 whole entry, looked up): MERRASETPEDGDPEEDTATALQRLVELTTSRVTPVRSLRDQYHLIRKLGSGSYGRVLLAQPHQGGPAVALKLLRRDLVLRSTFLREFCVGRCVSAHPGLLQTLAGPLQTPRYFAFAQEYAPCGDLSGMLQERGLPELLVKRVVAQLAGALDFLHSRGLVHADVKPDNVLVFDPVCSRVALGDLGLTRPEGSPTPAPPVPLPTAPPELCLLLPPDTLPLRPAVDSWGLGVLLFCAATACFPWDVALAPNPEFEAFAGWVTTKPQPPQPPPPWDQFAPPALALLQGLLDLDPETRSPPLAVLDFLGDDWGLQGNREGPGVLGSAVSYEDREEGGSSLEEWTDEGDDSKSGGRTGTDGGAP
LCK (human), sequence (P06239 whole entry, looked up): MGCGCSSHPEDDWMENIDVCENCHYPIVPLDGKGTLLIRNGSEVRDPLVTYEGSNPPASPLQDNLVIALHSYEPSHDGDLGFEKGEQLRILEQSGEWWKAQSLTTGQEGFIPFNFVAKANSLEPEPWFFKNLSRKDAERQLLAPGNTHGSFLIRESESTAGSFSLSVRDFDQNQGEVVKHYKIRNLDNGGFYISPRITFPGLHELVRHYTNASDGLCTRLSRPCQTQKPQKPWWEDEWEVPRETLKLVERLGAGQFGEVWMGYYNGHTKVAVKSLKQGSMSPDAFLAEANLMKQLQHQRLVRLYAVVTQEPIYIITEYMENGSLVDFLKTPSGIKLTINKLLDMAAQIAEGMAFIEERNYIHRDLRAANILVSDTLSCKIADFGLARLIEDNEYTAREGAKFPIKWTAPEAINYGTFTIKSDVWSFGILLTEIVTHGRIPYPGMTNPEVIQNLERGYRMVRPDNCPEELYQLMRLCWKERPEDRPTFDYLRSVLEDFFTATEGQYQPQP
RIPK2 (human), sequence (O43353 whole entry, looked up): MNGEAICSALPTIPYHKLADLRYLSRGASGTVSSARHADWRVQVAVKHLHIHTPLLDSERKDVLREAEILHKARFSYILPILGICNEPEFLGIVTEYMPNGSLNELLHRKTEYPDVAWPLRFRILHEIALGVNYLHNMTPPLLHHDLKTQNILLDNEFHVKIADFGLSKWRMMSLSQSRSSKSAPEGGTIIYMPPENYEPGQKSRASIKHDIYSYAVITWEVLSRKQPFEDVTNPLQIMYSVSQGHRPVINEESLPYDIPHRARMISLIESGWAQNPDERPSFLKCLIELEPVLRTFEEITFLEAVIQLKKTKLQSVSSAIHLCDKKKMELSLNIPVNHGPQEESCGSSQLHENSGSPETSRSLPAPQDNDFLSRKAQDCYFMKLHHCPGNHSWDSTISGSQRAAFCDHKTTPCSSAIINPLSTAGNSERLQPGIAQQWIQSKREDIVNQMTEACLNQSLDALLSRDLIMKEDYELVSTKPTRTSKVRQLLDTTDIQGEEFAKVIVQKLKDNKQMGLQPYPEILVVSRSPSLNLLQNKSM
CDK18 (human), sequence (Q07002 whole entry, looked up): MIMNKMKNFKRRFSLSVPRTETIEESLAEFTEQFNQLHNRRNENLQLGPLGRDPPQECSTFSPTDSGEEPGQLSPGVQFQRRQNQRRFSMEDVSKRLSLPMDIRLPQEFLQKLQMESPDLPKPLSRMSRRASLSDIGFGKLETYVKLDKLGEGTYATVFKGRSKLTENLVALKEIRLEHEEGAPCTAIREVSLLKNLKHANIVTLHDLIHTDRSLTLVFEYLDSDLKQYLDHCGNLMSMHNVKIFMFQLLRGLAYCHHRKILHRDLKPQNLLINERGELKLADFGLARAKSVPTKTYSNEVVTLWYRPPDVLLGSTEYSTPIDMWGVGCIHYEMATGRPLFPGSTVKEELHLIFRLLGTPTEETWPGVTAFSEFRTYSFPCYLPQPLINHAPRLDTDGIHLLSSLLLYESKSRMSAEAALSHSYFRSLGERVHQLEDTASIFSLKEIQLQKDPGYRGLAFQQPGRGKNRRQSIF

With `N#Cc1ccc2ncnc(NCCc3ccc4ccccc4c3)c2c1` the kinase still bound, per cent of control [1] was 100%, the kinase still bound, per cent of control (ACVR2B (human)) was 89% and the kinase still bound, per cent of control (BMPR1A (human)) was 100%. For the same compound, the kinase still bound, per cent of control (BRSK2 (human)) was 100%, the kinase still bound, per cent of control (CAMK2B (human)) was 88% and the kinase still bound, per cent of control (CDK16 (human)) was 100%. For the same compound, the kinase still bound, per cent of control (CDK18 (human)) was 97%, the kinase still bound, per cent of control (CSNK1G3 (human)) was 81% and the kinase still bound, per cent of control (DAPK3 (human)) was 74%. For the same compound, the kinase still bound, per cent of control (DYRK1A (human)) was 100%, the kinase still bound, per cent of control [2] was 71% and the kinase still bound, per cent of control [3] was 80%. The kinase still bound, per cent of control [4] was 86%, the kinase still bound, per cent of control (FGFR4 (human)) was 100% and the kinase still bound, per cent of control (FYN (human)) was 98%. The kinase still bound, per cent of control [5] was 59%, the kinase still bound, per cent of control [6] was 89% and the kinase still bound, per cent of control (LCK (human)) was 84%. For the same compound, the kinase still bound, per cent of control [7] was 100%, the kinase still bound, per cent of control (MAP2K6 (human)) was 100% and the kinase still bound, per cent of control (MAP3K4 (human)) was 86%. The kinase still bound, per cent of control (MAP4K5 (human)) was 95%, the kinase still bound, per cent of control (MAPK6 (human)) was 91% and the kinase still bound, per cent of control (MAPK7 (human)) was 93%. For the same compound, the kinase still bound, per cent of control (MARK1 (human)) was 83%, the kinase still bound, per cent of control (MARK2 (human)) was 94% and the kinase still bound, per cent of control (MYLK3 (human)) was 79%. For the same compound, the kinase still bound, per cent of control (NEK7 (human)) was 100%, the kinase still bound, per cent of control (NLK (human)) was 85% and the kinase still bound, per cent of control (NTRK1 (human)) was 100%. The kinase still bound, per cent of control (PIP5K1C (human)) was 100%, the kinase still bound, per cent of control (PKMYT1 (human)) was 100% and the kinase still bound, per cent of control (PKN3 (M.tuberculosis)) was 100%. For the same compound, the kinase still bound, per cent of control (RIPK2 (human)) was 100%, the kinase still bound, per cent of control (ROCK1 (human)) was 100% and the kinase still bound, per cent of control (SGK110 (human)) was 79%. For the same compound, the kinase still bound, per cent of control (SIK2 (human)) was 100%, the kinase still bound, per cent of control (SNRK (human)) was 36% and the kinase still bound, per cent of control (STK35 (human)) was 100%. The kinase still bound, per cent of control (SYK (human)) was 100%, the kinase still bound, per cent of control (TNIK (human)) was 97% and the kinase still bound, per cent of control [8] was 93%. The kinase still bound, per cent of control (ULK2 (human)) was 100%.

Reference: the kinase profiling compilation of Christmann-Franck et al. (2016)
